In patent US20260138961A1, “MODULATORS OF MITOCHONDRIAL DNA REPLICATION” (Pretzel Therapeutics, Inc., priority 2022, published 2026) one finds AC50 data, which are given here for 31 compounds.

Some results are limits rather than exact numbers.

The target of the assay is T1, POLγA:G848S (Homo sapiens, UniProt P54098, G848S).
T1 sequence (P54098 1-1239 G848S): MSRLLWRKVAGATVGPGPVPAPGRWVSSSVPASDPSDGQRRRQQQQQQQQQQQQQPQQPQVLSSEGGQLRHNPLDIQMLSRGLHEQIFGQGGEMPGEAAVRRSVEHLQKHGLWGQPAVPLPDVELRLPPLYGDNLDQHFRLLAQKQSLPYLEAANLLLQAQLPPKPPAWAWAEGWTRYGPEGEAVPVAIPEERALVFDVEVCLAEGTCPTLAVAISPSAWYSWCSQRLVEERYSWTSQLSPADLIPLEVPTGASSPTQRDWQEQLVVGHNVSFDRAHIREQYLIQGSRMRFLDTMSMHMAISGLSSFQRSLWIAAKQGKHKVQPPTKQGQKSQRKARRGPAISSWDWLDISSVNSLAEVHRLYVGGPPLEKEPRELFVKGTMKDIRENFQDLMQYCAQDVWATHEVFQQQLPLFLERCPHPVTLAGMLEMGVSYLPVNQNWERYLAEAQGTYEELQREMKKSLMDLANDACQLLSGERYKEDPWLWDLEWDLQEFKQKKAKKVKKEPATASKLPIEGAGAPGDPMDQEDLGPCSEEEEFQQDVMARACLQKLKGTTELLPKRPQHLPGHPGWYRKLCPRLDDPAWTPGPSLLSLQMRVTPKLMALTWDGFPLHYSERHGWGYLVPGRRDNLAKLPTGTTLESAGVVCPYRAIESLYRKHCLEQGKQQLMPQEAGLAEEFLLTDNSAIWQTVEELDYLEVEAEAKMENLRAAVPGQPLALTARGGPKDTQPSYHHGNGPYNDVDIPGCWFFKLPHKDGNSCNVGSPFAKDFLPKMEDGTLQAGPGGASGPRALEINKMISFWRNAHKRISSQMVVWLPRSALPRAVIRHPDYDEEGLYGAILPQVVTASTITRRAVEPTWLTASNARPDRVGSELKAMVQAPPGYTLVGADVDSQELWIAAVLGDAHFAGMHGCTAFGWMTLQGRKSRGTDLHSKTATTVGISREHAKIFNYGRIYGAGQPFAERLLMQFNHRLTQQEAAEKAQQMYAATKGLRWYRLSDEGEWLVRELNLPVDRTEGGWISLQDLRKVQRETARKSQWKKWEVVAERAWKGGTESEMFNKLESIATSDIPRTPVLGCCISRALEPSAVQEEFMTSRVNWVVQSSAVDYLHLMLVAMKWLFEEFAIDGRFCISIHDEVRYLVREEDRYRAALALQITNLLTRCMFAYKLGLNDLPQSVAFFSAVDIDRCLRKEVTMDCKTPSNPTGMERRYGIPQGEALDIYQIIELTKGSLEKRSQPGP
T1 sequence (Q9UHN1 1-485 partner): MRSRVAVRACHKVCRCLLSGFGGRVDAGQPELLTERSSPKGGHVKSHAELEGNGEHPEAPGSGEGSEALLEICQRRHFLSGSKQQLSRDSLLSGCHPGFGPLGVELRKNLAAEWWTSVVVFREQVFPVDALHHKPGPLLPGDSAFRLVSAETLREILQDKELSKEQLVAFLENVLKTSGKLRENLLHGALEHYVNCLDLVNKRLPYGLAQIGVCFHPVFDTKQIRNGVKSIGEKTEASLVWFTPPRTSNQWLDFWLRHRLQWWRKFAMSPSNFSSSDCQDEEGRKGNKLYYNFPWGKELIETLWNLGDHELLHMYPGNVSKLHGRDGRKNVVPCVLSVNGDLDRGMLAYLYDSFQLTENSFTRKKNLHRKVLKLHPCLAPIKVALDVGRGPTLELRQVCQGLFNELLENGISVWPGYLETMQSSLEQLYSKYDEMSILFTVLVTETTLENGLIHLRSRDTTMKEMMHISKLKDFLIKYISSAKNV
In words: DNA polymerization assay, POLγA:G848S mutant. The format is biochemical. The conditions noted are these: stimulation of polymerase activity, primed M13mp18 ssDNA, 37° C. 2 hours; read-out: G848S AC50.
With `Cc1ccc(C)c(S(=O)(=O)Nc2cccc(C(=O)N3CCN(C)CC3)c2)c1` [Example 31, 2,5-dimethyl-N-(3-(4-methylpiperazine-1-carbonyl)phenyl)benzenesulfonamide], the AC50 is over 100 µM.

In the case of `Cc1cc(S(=O)(=O)Nc2cn(C)c(-c3ccccc3)n2)c(C)cc1Cl` [Example 170, 4-chloro-2,5-dimethyl-N-(1-methyl-2-phenyl-1H-imidazol-4-yl)benzenesulfonamide], the AC50 was over 10 µM.

`Cc1cc2c(NS(=O)(=O)c3cc(C)c(Cl)cc3C)cccc2[nH]1` [Example 37, 4-chloro-2,5-dimethyl-N-(2-methyl-1H-indol-4-yl)benzenesulfonamide]: the half-maximal activity concentration (AC50) is over 100 µM.

`Cc1cc(S(=O)(=O)Nc2ccc3ccn(C(C)C)c3c2)c(C)cc1Cl` [Example 69, 4-chloro-N-(1-isopropyl-1H-indol-6-yl)-2,5-dimethylbenzenesulfonamide]: the AC50 was 14 µM.

Regarding `Cc1cc(S(=O)(=O)Nc2cccc(C(N)=O)c2)c(C)cc1Cl` [Example 44, 3-((4-chloro-2,5-dimethylphenyl)sulfonamido)benzamide], the AC50 amounted to 27 µM.

For the compound `Cc1cc(S(=O)(=O)Nc2cccc(-c3cc(C4CC4)[nH]n3)c2)c(C)cc1Cl` [Example 64, 4-chloro-N-(3-(5-cyclopropyl-1H-pyrazol-3-yl)phenyl)-2,5-dimethylbenzenesulfonamide], the AC50 was found to be 1 µM.

Take `Cc1nc2cc(NS(=O)(=O)c3cc(C)c(Cl)cc3C)ccc2s1` [Example 71, 4-chloro-2,5-dimethyl-N-(2-methylbenzo[d]thiazol-5-yl)benzenesulfonamide]: the AC50 was over 100 µM.

Consider `Cc1cc(S(=O)(=O)Nc2csc(-c3ccccn3)n2)c(C)cc1Cl` [Example 173, 4-chloro-2,5-dimethyl-N-(2-(pyridin-2-yl)thiazol-4-yl)benzenesulfonamide], for which the AC50 came out at 2 µM.

Consider `Cc1nc2ccc(NS(=O)(=O)c3cc(C)c(Cl)cc3C)cc2o1` [Example 70, 4-chloro-2,5-dimethyl-N-(2-methylbenzo[d]oxazol-6-yl)benzenesulfonamide], for which the AC50 was determined as 49 µM.

`Cc1cc(S(=O)(=O)Nc2csc(C(=O)N(C)CC(N)=O)n2)c(C)cc1Cl` [Example 172, N-(2-amino-2-oxoethyl)-4-((4-chloro-2,5-dimethylphenyl)sulfonamido)-N-methylthiazole-2-carboxamide]: the AC50 is over 10 µM.

Consider `Cc1c(Cl)cccc1S(=O)(=O)Nc1csc(-c2ccccc2)n1` [Example 154, 3-chloro-2-methyl-N-(2-phenylthiazol-4-yl)benzenesulfonamide], for which the concentration at half-maximal activity (AC50) was over 100 µM.

Regarding `Cc1cc(S(=O)(=O)Nc2csc(C(=O)N(CC(N)=O)C3CCCC3)n2)c(C)cc1Cl` [Example 177, N-(2-amino-2-oxoethyl)-4-((4-chloro-2,5-dimethylphenyl)sulfonamido)-N-cyclopentylthiazole-2-carboxamide], the AC50 is over 100 µM.

In the case of `COCCN(C)C(=O)c1cccc(NS(=O)(=O)c2cc(C)c(Cl)cc2C)c1` [Example 58, 3-((4-chloro-2,5-dimethylphenyl)sulfonamido)-N-(2-methoxyethyl)-N-methylbenzamide], the AC50 amounted to 46 µM.

Turning to `Cc1ccc(C)c(S(=O)(=O)Nc2cccc(C(=O)N(C)Cc3ccccc3)c2)c1` [Example 26, N-benzyl-3-((2,5-dimethylphenyl)sulfonamido)-N-methylbenzamide], the AC50 worked out at 50 µM.

For the compound `Cc1cc(NS(=O)(=O)c2cc(C)ccc2C)cc(C(=O)N2CCCC[C@H]2C)c1` [Example 42, (R)-2,5-dimethyl-N-(3-methyl-5-(2-methylpiperidine-1-carbonyl)phenyl)benzenesulfonamide], the AC50 is over 100 µM.

On to `COc1ccccc1-c1nc(NS(=O)(=O)c2cc(C)c(Cl)cc2C)cs1` [Example 155, 4-chloro-N-(2-(2-methoxyphenyl)thiazol-4-yl)-2,5-dimethylbenzenesulfonamide], for which the AC50 came out at 4 µM.

For the compound `Cc1cc(S(=O)(=O)Nc2cccc(C(=O)N3CCNCC3)c2)c(C)cc1Cl` [Example 46, 4-chloro-2,5-dimethyl-N-(3-(piperazine-1-carbonyl)phenyl)benzenesulfonamide], the AC50 came to 91 µM.

For `Cc1cc(S(=O)(=O)Nc2cc(-c3nccs3)ccc2F)c(C)cc1Cl` [Example 61, 4-chloro-N-(2-fluoro-5-(thiazol-2-yl)phenyl)-2,5-dimethylbenzenesulfonamide], the AC50 was over 100 µM.

`Cc1cc(S(=O)(=O)Nc2ccc(F)c(-c3nccs3)c2)c(C)cc1Cl` [Example 63, 4-chloro-N-(4-fluoro-3-(thiazol-2-yl)phenyl)-2,5-dimethylbenzenesulfonamide]: the AC50 was over 100 µM.

As to `Cc1cc(S(=O)(=O)Nc2cccc(C(=O)N[C@H](C)c3ccccc3)c2)c(C)cc1Cl` [Example 48, (R)-3-((4-chloro-2,5-dimethylphenyl)sulfonamido)-N-(1-phenylethyl)benzamide], the AC50 worked out at 13 µM.

In the case of `Cc1ccccc1S(=O)(=O)Nc1cccc(C(=O)N2CCOC[C@@H]2C)c1` [Example 23, (S)-2-methyl-N-(3-(3-methylmorpholine-4-carbonyl)phenyl)benzenesulfonamide], the concentration at half-maximal activity (AC50) was over 100 µM.

Consider `Cc1cc(S(=O)(=O)Nc2nc(-c3ccccc3)n(C)n2)c(C)cc1Cl` [Example 180, 4-chloro-2,5-dimethyl-N-(1-methyl-5-phenyl-1H-1,2,4-triazol-3-yl)benzenesulfonamide], for which the AC50 is over 10 µM.

`Cc1cc2cc(NS(=O)(=O)c3cc(C)c(Cl)cc3C)ccc2[nH]1` [Example 184, 4-chloro-2,5-dimethyl-N-(2-methyl-1H-indol-5-yl)benzenesulfonamide]: the AC50 amounted to 24 µM.

On to `O=S(=O)(Nc1cccc(-c2nccs2)c1)c1ccc(Cl)cc1` [Example 59, 4-chloro-N-(3-(thiazol-2-yl)phenyl)benzenesulfonamide], for which the AC50 is over 100 µM.

Consider `Cc1ccc(C)c(S(=O)(=O)Nc2cccc(C(=O)N(C)C)c2)c1` [Example 25, 3-((2,5-dimethylphenyl)sulfonamido)-N,N-dimethylbenzamide], for which the AC50 is over 100 µM.

For `Cc1ccc(C)c(S(=O)(=O)Nc2cccc(-c3nccs3)c2)c1` [Example 60], the concentration at half-maximal activity (AC50) came to 2 µM.

Take `Cc1cc(S(=O)(=O)Nc2cccc3c2CC(=O)N3)c(C)cc1Cl` [Example 36, 4-chloro-2,5-dimethyl-N-(2-oxoindolin-4-yl)benzenesulfonamide]: the AC50 is over 100 µM.

For the compound `Cc1cc(S(=O)(=O)Nc2csc(C(=O)N3CCC[C@H]3C)n2)c(C)cc1Cl` [Example 174, (R)-4-chloro-2,5-dimethyl-N-(2-(2-methylpyrrolidine-1-carbonyl)thiazol-4-yl)benzenesulfonamide], the AC50 is 0.4 µM.

On to `Cc1cc(S(=O)(=O)Nc2cccc(C(=O)N3CCC(F)(F)C3)c2)c(C)cc1Cl` [Example 160, 4-chloro-N-(3-(3,3-difluoropyrrolidine-1-carbonyl)phenyl)-2,5-dimethylbenzenesulfonamide], for which the AC50 amounted to 14 µM.

Take `Cc1cc(S(=O)(=O)Nc2cnn(-c3ccccc3)n2)c(C)cc1Cl` [Example 171, 4-chloro-2,5-dimethyl-N-(2-phenyl-2H-1,2,3-triazol-4-yl)benzenesulfonamide]: the AC50 was over 10 µM.

In the case of `Cc1cc(S(=O)(=O)N(C)c2cccc(-c3nccs3)c2)c(C)cc1Cl` [Example 22, 4-chloro-N,2,5-trimethyl-N-(3-(thiazol-2-yl)phenyl)benzenesulfonamide], the AC50 was over 100 µM.

A word on the AC50: it is the concentration giving half of the maximal activity seen.
